The results in this text go back to ChEMBL document CHEMBL4190379 (Bioorg Med Chem Lett, 2018).

For experiment [1], the target named is Protein polybromo-1 (Homo sapiens) (UniProt Q86U86). Nature of the experiment: Binding affinity to human PBRM1 bromodomain 2 expressed in bacterial system assessed as remaining binding level at 1 uM by BROMOscan assay relative to control.
Experiment [2] deals with Bromodomain-containing protein 4 (Homo sapiens, UniProt O60885). Nature of the experiment: Binding affinity to His-tagged BRD4 bromodomain 1 to 2 (K57 to K550 amino acids) (unknown origin) using Alexa647-labeled BET-inhibitor as fluorescent probe by bromodomain TR-FRET binding assay. In kind it is single protein.
For experiment [3], the target named is T1, ATPase family AAA domain-containing protein 2B (Homo sapiens) (UniProt Q9ULI0).
T1 sequence (whole entry): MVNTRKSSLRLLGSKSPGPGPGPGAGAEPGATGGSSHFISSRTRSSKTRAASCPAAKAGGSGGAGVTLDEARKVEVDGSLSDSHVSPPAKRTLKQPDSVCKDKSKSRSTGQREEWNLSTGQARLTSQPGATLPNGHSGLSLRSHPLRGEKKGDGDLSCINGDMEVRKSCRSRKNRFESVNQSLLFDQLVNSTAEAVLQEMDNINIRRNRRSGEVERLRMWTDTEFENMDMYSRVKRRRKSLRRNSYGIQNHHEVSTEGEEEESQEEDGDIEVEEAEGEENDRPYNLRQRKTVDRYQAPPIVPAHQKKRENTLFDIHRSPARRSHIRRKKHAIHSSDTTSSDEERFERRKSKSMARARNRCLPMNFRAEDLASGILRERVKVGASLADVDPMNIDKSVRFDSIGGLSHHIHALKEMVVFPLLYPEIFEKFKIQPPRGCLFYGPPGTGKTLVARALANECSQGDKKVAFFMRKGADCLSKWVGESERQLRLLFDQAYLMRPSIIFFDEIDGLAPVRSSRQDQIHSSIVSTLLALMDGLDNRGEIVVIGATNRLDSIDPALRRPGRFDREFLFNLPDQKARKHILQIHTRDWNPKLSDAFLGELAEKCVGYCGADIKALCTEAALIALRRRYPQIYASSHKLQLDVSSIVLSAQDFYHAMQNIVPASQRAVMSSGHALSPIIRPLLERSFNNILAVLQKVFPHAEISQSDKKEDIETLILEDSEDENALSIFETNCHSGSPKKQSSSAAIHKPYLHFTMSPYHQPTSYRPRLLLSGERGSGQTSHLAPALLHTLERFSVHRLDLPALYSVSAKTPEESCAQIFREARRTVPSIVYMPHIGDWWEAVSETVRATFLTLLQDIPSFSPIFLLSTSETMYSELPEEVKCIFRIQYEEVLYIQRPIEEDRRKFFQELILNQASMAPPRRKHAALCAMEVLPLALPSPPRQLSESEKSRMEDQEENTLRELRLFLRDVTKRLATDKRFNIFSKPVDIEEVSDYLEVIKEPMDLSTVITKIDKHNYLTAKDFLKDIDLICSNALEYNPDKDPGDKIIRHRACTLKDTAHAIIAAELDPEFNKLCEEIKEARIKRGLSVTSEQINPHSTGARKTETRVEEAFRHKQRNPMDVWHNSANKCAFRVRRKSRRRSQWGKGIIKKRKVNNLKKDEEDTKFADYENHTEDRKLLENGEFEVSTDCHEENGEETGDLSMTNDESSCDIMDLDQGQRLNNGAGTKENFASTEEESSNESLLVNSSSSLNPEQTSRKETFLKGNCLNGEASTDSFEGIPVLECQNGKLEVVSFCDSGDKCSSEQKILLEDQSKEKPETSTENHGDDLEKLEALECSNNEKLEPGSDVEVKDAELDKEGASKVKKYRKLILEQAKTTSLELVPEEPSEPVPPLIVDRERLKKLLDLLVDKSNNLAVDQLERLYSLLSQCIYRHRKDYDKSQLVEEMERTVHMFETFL
Nature of the experiment: Binding affinity to human ATAD2B expressed in bacterial system assessed as remaining binding level at 1 uM by BROMOscan assay relative to control.

Experiment [4] deals with T2, Bromodomain and PHD finger-containing protein 3 (Homo sapiens) (UniProt Q9ULD4).
T2 sequence (whole entry): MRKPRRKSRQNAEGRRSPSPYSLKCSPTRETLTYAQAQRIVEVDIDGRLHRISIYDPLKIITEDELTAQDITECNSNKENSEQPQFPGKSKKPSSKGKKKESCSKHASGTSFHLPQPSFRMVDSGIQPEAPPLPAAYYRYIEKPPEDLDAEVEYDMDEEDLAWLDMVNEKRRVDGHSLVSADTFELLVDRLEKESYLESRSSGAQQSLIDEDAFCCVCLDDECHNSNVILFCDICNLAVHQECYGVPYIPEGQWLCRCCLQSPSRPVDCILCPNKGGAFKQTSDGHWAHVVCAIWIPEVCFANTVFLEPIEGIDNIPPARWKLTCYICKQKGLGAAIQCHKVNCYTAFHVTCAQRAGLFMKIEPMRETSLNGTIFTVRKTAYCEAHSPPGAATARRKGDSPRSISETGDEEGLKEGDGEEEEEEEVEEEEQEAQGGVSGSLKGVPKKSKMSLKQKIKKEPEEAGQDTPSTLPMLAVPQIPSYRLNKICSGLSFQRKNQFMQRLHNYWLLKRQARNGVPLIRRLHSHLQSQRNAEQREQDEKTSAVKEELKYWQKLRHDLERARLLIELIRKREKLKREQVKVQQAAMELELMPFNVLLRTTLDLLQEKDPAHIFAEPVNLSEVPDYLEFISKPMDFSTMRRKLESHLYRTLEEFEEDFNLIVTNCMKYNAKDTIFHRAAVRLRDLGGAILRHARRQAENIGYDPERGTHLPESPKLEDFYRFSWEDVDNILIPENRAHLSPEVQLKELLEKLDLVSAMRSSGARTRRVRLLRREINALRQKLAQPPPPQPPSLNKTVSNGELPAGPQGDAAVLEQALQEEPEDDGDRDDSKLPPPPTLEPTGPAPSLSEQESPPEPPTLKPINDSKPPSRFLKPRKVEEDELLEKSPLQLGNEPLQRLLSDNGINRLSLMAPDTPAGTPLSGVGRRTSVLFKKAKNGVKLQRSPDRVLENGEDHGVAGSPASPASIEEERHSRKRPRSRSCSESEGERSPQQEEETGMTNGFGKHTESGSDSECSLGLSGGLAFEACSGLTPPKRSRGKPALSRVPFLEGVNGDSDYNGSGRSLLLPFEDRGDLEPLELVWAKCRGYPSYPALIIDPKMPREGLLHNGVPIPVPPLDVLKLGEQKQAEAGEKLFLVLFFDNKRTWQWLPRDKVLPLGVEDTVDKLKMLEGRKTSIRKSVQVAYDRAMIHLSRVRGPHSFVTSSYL
Nature of the experiment: Binding affinity to human BRPF3 expressed in bacterial system assessed as remaining binding level at 1 uM by BROMOscan assay relative to control.

For experiment [5], the target named is Chromatin remodeling regulator CECR2 (Homo sapiens) (UniProt Q9BXF3). Nature of the experiment: Binding affinity to human CECR2 expressed in bacterial system assessed as remaining binding level at 1 uM by BROMOscan assay relative to control.
Experiment [6] has as its target Transcription initiation factor TFIID subunit 1-like (Homo sapiens) (UniProt Q8IZX4). Description: Binding affinity to human TAF1L bromodomain 2 expressed in bacterial system assessed as remaining binding level at 1 uM by BROMOscan assay relative to control.

Chain of Transcription initiation factor TFIID subunit 1-like (Homo sapiens) (Q8IZX4 whole entry): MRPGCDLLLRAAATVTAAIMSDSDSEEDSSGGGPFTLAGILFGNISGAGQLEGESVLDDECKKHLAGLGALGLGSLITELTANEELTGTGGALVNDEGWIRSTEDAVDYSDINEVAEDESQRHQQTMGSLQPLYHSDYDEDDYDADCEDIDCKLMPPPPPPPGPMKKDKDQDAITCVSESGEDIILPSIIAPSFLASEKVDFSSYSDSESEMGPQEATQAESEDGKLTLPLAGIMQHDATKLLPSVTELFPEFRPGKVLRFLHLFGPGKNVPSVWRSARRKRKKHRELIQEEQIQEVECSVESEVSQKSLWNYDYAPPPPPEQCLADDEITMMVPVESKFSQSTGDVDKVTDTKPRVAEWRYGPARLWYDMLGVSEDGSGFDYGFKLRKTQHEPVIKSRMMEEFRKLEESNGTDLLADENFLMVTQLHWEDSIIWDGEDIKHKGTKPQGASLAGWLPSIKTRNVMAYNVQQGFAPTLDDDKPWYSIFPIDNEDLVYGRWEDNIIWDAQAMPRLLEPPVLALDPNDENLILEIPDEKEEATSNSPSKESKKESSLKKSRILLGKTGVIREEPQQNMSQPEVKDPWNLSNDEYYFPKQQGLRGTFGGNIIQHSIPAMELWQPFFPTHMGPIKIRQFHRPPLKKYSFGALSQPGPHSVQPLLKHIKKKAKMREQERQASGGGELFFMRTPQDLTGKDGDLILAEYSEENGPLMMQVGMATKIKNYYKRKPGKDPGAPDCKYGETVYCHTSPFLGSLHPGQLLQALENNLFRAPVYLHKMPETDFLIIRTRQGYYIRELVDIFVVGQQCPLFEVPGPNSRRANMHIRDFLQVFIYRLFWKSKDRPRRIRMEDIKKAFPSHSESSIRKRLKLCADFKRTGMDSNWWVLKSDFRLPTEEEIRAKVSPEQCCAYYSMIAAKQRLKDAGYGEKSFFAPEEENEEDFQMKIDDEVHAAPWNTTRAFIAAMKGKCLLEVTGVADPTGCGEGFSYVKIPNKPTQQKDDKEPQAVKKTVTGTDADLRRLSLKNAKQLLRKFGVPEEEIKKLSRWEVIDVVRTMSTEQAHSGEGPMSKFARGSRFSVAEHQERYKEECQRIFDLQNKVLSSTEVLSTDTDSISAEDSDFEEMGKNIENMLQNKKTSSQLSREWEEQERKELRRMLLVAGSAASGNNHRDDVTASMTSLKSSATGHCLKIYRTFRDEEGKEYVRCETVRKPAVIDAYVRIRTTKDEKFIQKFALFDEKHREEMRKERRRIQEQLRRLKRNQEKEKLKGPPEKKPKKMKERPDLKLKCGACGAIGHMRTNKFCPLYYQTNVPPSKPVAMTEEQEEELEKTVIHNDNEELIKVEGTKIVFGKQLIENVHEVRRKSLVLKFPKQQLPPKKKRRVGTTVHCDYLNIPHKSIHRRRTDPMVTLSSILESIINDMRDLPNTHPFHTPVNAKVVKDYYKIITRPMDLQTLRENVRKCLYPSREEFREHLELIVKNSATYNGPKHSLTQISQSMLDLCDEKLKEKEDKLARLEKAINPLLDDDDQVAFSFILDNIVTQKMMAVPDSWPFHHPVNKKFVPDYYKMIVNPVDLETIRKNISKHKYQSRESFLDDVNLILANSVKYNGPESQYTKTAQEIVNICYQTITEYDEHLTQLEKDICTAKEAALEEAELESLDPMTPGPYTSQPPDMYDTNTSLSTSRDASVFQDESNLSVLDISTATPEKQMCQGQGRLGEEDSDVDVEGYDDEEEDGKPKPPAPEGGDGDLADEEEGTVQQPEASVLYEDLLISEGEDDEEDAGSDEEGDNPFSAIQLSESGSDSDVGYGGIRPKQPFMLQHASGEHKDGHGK
Chain of Chromatin remodeling regulator CECR2 (Homo sapiens) (Q9BXF3 whole entry, looked up): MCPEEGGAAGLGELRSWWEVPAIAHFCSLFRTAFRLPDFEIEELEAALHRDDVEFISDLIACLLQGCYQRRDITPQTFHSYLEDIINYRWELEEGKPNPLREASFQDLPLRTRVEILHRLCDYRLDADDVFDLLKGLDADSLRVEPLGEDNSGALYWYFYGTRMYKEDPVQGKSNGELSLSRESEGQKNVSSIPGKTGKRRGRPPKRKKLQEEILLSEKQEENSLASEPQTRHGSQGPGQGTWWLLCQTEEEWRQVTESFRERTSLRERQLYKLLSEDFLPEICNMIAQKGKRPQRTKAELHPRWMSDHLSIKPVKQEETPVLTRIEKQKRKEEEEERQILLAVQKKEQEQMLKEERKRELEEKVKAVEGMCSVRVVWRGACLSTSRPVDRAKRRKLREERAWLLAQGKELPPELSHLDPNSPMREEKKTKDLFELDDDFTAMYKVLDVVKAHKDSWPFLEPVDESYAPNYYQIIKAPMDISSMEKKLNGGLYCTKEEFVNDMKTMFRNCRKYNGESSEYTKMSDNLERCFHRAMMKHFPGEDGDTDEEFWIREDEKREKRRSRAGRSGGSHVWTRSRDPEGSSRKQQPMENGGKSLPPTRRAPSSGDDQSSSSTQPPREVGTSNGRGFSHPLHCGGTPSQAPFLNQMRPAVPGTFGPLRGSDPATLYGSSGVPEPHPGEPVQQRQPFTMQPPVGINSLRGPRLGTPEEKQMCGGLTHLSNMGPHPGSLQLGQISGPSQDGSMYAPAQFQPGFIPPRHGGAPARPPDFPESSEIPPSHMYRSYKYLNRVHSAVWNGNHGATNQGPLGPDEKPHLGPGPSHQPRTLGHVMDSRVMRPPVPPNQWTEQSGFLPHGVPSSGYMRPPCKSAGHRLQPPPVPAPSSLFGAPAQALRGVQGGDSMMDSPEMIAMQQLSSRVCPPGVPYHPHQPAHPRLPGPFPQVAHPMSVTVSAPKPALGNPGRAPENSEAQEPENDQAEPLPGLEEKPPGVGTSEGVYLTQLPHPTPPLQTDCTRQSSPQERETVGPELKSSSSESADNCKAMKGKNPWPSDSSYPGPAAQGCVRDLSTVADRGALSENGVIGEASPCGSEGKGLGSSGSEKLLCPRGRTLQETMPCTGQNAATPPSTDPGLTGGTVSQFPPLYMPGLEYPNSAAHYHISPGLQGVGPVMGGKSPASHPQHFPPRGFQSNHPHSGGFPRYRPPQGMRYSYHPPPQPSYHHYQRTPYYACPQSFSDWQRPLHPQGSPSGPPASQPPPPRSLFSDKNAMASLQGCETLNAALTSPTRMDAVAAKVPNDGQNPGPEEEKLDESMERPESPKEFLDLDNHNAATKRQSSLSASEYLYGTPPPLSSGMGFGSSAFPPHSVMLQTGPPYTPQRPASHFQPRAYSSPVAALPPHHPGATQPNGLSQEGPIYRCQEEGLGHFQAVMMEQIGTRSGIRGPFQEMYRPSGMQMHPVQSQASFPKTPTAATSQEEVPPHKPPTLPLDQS
Chain of Protein polybromo-1 (Homo sapiens) (Q86U86 whole entry, the tested form may be a part): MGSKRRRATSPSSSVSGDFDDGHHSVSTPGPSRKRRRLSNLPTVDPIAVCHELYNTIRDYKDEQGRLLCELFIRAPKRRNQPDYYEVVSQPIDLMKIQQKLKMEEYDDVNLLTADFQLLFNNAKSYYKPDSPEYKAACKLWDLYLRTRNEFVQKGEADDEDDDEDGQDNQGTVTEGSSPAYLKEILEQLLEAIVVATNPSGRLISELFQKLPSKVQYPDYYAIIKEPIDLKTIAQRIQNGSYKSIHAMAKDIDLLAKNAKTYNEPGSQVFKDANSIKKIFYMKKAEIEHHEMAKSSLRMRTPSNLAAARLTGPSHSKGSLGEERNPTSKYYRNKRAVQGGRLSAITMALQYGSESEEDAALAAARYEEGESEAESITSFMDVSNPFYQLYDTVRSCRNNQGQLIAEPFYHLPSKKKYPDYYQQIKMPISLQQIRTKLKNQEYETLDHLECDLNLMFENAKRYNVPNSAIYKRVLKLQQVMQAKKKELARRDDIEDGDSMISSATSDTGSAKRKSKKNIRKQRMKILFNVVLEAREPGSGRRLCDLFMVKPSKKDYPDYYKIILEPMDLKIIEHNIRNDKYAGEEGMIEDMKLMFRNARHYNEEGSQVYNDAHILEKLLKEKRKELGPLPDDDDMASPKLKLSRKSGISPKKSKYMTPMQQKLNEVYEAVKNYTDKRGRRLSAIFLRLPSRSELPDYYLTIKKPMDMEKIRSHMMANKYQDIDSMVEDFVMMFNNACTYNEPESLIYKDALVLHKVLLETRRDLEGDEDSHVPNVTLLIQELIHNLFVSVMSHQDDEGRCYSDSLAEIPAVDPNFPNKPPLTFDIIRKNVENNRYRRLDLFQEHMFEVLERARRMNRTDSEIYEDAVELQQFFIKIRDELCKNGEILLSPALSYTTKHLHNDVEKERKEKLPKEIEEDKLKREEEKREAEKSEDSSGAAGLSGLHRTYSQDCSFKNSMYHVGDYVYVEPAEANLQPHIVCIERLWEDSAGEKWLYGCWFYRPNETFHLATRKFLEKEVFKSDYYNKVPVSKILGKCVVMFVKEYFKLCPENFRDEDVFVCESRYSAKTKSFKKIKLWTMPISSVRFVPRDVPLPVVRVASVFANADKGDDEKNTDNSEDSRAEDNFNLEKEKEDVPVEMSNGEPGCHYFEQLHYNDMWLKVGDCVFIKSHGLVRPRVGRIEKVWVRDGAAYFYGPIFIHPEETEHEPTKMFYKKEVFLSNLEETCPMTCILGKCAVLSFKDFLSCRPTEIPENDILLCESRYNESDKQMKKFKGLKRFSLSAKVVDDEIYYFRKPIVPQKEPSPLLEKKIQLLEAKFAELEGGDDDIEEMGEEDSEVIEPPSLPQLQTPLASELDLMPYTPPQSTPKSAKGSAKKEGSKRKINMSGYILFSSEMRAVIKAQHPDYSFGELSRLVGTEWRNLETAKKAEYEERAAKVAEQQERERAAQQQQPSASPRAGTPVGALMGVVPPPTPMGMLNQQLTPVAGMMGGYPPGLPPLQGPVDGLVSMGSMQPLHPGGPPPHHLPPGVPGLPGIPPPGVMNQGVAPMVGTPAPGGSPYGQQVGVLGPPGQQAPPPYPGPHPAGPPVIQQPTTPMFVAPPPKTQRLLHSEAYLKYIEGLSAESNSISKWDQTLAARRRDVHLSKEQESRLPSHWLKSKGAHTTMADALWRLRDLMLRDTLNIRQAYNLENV

Usually Ki stands for the equilibrium dissociation constant of an inhibitor or competing ligand from its target. On to `Cn1cc2c3c(c[nH]c3c1=O)CN(c1ccccn1)c1ccc(CS(C)(=O)=O)cc1-2`, for which the Activity amounted to 81% in experiment [1]; 33% in experiment [3]; 94% in experiment [4]; 67% in experiment [5]; 32% in experiment [6]. In experiment [2], this compound came in with a Ki of 0.62 nM.

For `Cn1cc2c3c(c[nH]c(=O)c31)-c1cc(CS(C)(=O)=O)ccc1N(c1ccc(F)cc1)C2`, the Activity in experiment [1] came out at 92%; in experiment [3], 76%; in experiment [4], 100%; in experiment [5], 100%; in experiment [6], 85%. The Ki in experiment [2] was determined as 3.3 nM.

For `Cn1cc2c3c(c[nH]c3c1=O)CN(c1ccc(F)cc1F)c1ccc(CS(C)(=O)=O)cc1-2`, the Activity is 79% in experiment [1]; 60% in experiment [3]; 88% in experiment [4]; 81% in experiment [5]; 18% in experiment [6]. The compound further showed a Ki in experiment [2] of 0.87 nM.
